Measurements taken from US11072585B2 (PharmAkea, Inc., priority 2015, dated 2021).
Structures can show the parent of a compound that is named as a salt.

Molecular target: human LOXL2 (Homo sapiens (Human), UniProt Q9Y4K0)
Assay: Human LOXL2 amine oxidase activity assay (Amplex Red)
Assay type: biochemical
Conditions: concentrated conditioned media from CHO cells stably expressing human LOXL2; 2 h at 37° C. with compound; DAP substrate
Description: Example B-1: Human LOXL2 Amine Oxidase Activity Assay
LOXL2 amine oxidase activity is evaluated by measuring Amplex Red fluorescence using 10-20× concentrated conditioned media from CHO cells stably expressing human LOXL2. To assay for amine oxidase activity, 10 μL of the concentrated conditioned media is incubated with 2 μL of test compound in DMSO and 73 μL Assay Buffer (50 mM Borate Buffer, pH8) for 2 h at 37° C. After the 2 h incubation, 5 ul of 10 mM 1,5-Diaminopentane (DAP) diluted in Assay Buffer and 10 μl of Amplex Red Mix (8.5 μl Assay Buffer+0.5 μl of 10 mM Amplex Red+1 μl of 500 U/ml Horseradish Peroxidase) are added and the plate mixed and immediately placed on the FlexStaion for fluorescence measurements. Fluorescence is read in kinetic mode every 2 min for 1 hour at excitation=544 and emission=590. The amine oxidase activity is calculated from the slope of the linear portion of the curve.

Sequence of human LOXL2 (Q9Y4K0 26-774): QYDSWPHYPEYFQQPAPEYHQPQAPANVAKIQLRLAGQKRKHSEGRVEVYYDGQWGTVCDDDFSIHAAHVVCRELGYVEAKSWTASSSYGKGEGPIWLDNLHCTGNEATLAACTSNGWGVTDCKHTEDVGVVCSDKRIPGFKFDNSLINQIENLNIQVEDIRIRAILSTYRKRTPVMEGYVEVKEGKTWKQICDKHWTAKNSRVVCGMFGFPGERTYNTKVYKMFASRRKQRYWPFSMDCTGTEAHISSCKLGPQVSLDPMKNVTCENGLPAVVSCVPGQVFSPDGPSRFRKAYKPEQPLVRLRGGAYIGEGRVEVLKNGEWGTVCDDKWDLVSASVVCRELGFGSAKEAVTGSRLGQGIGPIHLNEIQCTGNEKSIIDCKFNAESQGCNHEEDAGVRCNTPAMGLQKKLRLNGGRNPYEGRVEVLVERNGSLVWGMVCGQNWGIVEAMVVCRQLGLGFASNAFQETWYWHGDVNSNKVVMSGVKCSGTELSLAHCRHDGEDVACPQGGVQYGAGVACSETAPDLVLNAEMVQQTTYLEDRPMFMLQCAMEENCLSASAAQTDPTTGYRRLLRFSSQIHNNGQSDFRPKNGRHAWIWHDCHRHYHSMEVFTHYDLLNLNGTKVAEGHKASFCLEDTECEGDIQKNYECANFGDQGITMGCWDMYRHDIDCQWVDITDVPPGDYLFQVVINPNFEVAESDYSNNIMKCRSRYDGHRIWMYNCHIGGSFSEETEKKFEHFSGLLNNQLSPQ

| Structure (SMILES) | IC50 |
| --- | --- |
| NCc1cc(Oc2cccc(C(=O)NC3COC3)c2)nc(C(F)(F)F)c1 [Compound 1-200, 3-((4-(Aminomethyl)-6-(trifluoromethyl)pyridin-2-yl)oxy)-N-(oxetan-3-yl)benzamide trifluoroacetate] | < 0.3 µM |
| NCc1cc(Oc2cccc(C(=O)N3CC=CC3)c2)nc(C(F)(F)F)c1 [Compound 1-215, (3-((4-(Aminomethyl)-6-(trifluoromethyl)pyridin-2-yl)oxy)phenyl)(2,5-dihydro-1H-pyrrol-1-yl)methanone hydrochloride] | < 0.3 µM |
| NCc1cc(Oc2cccc(C(=O)N3CC[C@H](F)C3)c2)nc(C(F)(F)F)c1 [Compound 1-213, (S)-(3-((4-(Aminomethyl)-6-(trifluoromethyl)pyridin-2-yl)oxy)phenyl)(3-fluoropyrrolidin-1-yl)methanone hydrochloride] | < 0.3 µM |
| NCc1cc(Oc2cccc(C(=O)N3CC[C@@H](O)C3)c2)nc(C(F)(F)F)c1 [Compound 1-18, (R)-(3-((4-(Aminomethyl)-6-(trifluoromethyl)pyridin-2-yl)oxy)phenyl)(3-hydroxypyrrolidin-1-yl)methanone hydrochloride] | < 0.3 µM |
| NCc1cc(Oc2cccc(C(=O)N3CCC[C@@H]3C(=O)O)c2)nc(C(F)(F)F)c1 [Compound 1-25, (R)-1-(3-((4-(Aminomethyl)-6-(trifluoromethyl)pyridin-2-yl)oxy)benzoyl)pyrrolidine-2-carboxylic acid hydrochloride] | 0.3 to 1 µM |
| NCc1cc(NC(=O)c2cccc(C(=O)N3CC[C@H](O)C3)c2)nc(C(F)(F)F)c1 [Compound 1-241, (S)—N-(4-(Aminomethyl)-6-(trifluoromethyl)pyridin-2-yl)-3-(3-hydroxypyrrolidine-1-carbonyl)benzamide trifluoroacetate] | < 0.3 µM |
| CN(C)CCNC(=O)c1cccc(Oc2cc(CN)cc(C(F)(F)F)n2)c1 [Compound 1-35, 3-((4-(Aminomethyl)-6-(trifluoromethyl)pyridin-2-yl)oxy)-N-(2-(dimethylamino)ethyl)benzamide dihydrochloride] | < 0.3 µM |
| NCc1cc(Oc2cccc(C(=O)N3CC[C@@H](CO)C3)c2)nc(C(F)(F)F)c1 [Compound 1-26, (R)-(3-((4-(Aminomethyl)-6-(trifluoromethyl)pyridin-2-yl)oxy)phenyl)(3-(hydroxymethyl)pyrrolidin-1-yl)methanone hydrochloride] | < 0.3 µM |
| CN(C(=O)Cn1ccc2c(Oc3cc(CN)cc(C(F)(F)F)n3)cccc21)c1ccccc1 [Compound 1-38, 2-(4-((4-(Aminomethyl)-6-(trifluoromethyl)pyridin-2-yl)oxy)-1H-indol-1-yl)-N-methyl-N-phenylacetamide hydrochloride] | < 0.3 µM |
| NCc1cc(-n2ccccc2=O)nc(C(F)(F)F)c1 [Compound 1-161, 4′-(Aminomethyl)-6′-(trifluoromethyl)-2H-[1,2′-bipyridin]-2-one hydrochloride] | > 1 µM |
| NCc1cc(OC2CCN(C(=O)Nc3ccccc3)CC2)nc(C(F)(F)F)c1 [Compound 1-41, 4-((4-(Aminomethyl)-6-(trifluoromethyl)pyridin-2-yl)oxy)-N-phenylpiperidine-1-carboxamide trifluoroacetate] | 0.3 to 1 µM |
| C#C[C@H](CC(=O)OC)NC(=O)c1cccc(Oc2cc(CN)cc(C(F)(F)F)n2)c1 [Compound 1-220, Methyl (S)-3-(3-((4-(aminomethyl)-6-(trifluoromethyl)pyridin-2-yl)oxy)benzamido)pent-4-ynoate] | < 0.3 µM |
| NCc1cc(Oc2ccnc(C(=O)Nc3ccccc3)c2)nc(C(F)(F)F)c1 [Compound 1-252, 4-((4-(Aminomethyl)-6-(trifluoromethyl)pyridin-2-yl)oxy)-N-phenylpicolinamide hydrochloride] | < 0.3 µM |
| CC(=O)N1CCC2(CC(Oc3cc(CN)cc(C(F)(F)F)n3)C2)C1 (stereo not drawn) [Compound 1-244, 1-(2-((4-(Aminomethyl)-6-(trifluoromethyl)pyridin-2-yl)oxy)-6-azaspiro[3.4]octan-6-yl)ethanone hydrochloride] | 0.3 to 1 µM |
| NCc1cc(-c2cccnc2)nc(C(F)(F)F)c1 [Compound 1-1, (6-(Trifluoromethyl)-[2,3′-bipyridin]-4-yl)methanamine trifluoroacetate] | < 0.3 µM |
| NCc1cc(Oc2cccc3c2ccn3CC(=O)N2CCCCC2)nc(C(F)(F)F)c1 [Compound 1-56, 2-(4-((4-(Aminomethyl)-6-(trifluoromethyl)pyridin-2-yl)oxy)-1H-indol-1-yl)-1-(piperidin-1-yl)ethanone] | 0.3 to 1 µM |
| NCc1cc(Oc2cccc(C(=O)N3CCC[C@H]3C(=O)O)c2)nc(C(F)(F)F)c1 [Compound 1-24, (S)-1-(3-((4-(Aminomethyl)-6-(trifluoromethyl)pyridin-2-yl)oxy)benzoyl)pyrrolidine-2-carboxylic acid hydrochloride] | > 1 µM |

| Structure (SMILES) | IC50 |
| --- | --- |
| NCc1cc(Oc2cccc(C(=O)N3CCC(CO)CC3)c2)nc(C(F)(F)F)c1 [Compound 1-204, (3-((4-(Aminomethyl)-6-(trifluoromethyl)pyridin-2-yl)oxy)phenyl)(4-(hydroxymethyl)piperidin-1-yl)methanone hydrochloride] | < 0.3 µM |
| C#CCCCCNC(=O)c1cccc(Oc2cc(CN)cc(C(F)(F)F)n2)c1 [Compound 1-216, 3-((4-(Aminomethyl)-6-(trifluoromethyl)pyridin-2-yl)oxy)-N-(hex-5-yn-1-yl)benzamide trifluoroacetate] | < 0.3 µM |
| NCc1cc(Oc2cccc(C(=O)NCc3ccc(F)cc3)c2)nc(C(F)(F)F)c1 [Compound 1-9, 3-((4-(Aminomethyl)-6-(trifluoromethyl)pyridin-2-yl)oxy)-N-(4-fluorobenzyl)benzamide hydrochloride] | < 0.3 µM |
| Cl.[2H]C([2H])(N)c1cc(Oc2cccc(C(=O)Nc3ccccc3)c2)nc(C(F)(F)F)c1 [Compound 1-8, 3-((4-(Aminomethyl-d2)-6-(trifluoromethyl)pyridin-2-yl)oxy)-N-phenylbenzamide hydrochloride] | < 0.3 µM |
| NCc1cc(Oc2cccc(C(=O)NO)c2)nc(C(F)(F)F)c1 [Compound 1-218, 3-((4-(Aminomethyl)-6-(trifluoromethyl)pyridin-2-yl)oxy)-N-hydroxybenzamide hydrochloride] | 0.3 to 1 µM |
| NCc1cc(Oc2cccc(C(=O)N[C@@H]3CCC[C@@H]3O)c2)nc(C(F)(F)F)c1 [Compound 1-209, 3-((4-(Aminomethyl)-6-(trifluoromethyl)pyridin-2-yl)oxy)-N-((1R,2S)-2-hydroxycyclopentyl)benzamide hydrochloride] | < 0.3 µM |
| N#CCCNC(=O)c1cccc(Oc2cc(CN)cc(C(F)(F)F)n2)c1 [Compound 1-198, 3-((4-(Aminomethyl)-6-(trifluoromethyl)pyridin-2-yl)oxy)-N-(2-cyanoethyl)benzamide hydrochloride] | < 0.3 µM |
| NCc1cc(O[C@H]2CCCN(C(=O)c3cccnc3)C2)nc(C(F)(F)F)c1 [Compound 1-49, (S)-(3-((4-(Aminomethyl)-6-(trifluoromethyl)pyridin-2-yl)oxy)piperidin-1-yl)(pyridin-3-yl)methanone trifluoroacetate] | < 0.3 µM |
| C#CCNC(=O)c1cccc(Oc2cc(CN)cc(C(F)(F)F)n2)c1 [Compound 1-248, 3-((4-(Aminomethyl)-6-(trifluoromethyl)pyridin-2-yl)oxy)-N-(prop-2-yn-1-yl)benzamide hydrochloride] | < 0.3 µM |
| NCc1cc(Oc2cccc(C(=O)N3CC(n4cccn4)C3)c2)nc(C(F)(F)F)c1 [Compound 1-12, (3-(1H-Pyrazol-1-yl)azetidin-1-yl)(3-((4-(aminomethyl)-6-(trifluoromethyl)pyridin-2-yl)oxy)phenyl)methanone trifluoroacetate] | < 0.3 µM |
| NCc1cc(Oc2cccc(C(=O)N3CCC[C@H](CO)C3)c2)nc(C(F)(F)F)c1 [Compound 1-203, (S)-(3-((4-(Aminomethyl)-6-(trifluoromethyl)pyridin-2-yl)oxy)phenyl)(3-(hydroxymethyl)piperidin-1-yl)methanone hydrochloride] | < 0.3 µM |
| Cn1cc(-n2ccc3c(Oc4cc(CN)cc(C(F)(F)F)n4)cccc32)cn1 [Compound 1-37, (2-((1-(1-Methyl-1H-pyrazol-4-yl)-1H-indol-4-yl)oxy)-6-(trifluoromethyl)pyridin-4-yl) methanamine hydrochloride] | < 0.3 µM |
| CN(CCO)C(=O)c1cccc(Oc2cc(CN)cc(C(F)(F)F)n2)c1 [Compound 1-202, 3-((4-(Aminomethyl)-6-(trifluoromethyl)pyridin-2-yl)oxy)-N-(2-hydroxyethyl)-N-methylbenzamide hydrochloride] | < 0.3 µM |
| C#Cc1cccc(NC(=O)c2cccc(Oc3cc(CN)cc(C(F)(F)F)n3)c2)c1 [Compound 1-247, 3-((4-(Aminomethyl)-6-(trifluoromethyl)pyridin-2-yl)oxy)-N-(3-ethynylphenyl)benzamide hydrochloride] | < 0.3 µM |
| NCc1cc(Oc2cccc(C(=O)NCCO)c2)nc(C(F)(F)F)c1 [Compound 1-16, 3-((4-(Aminomethyl)-6-(trifluoromethyl)pyridin-2-yl)oxy)-N-(2-hydroxyethyl)benzamide hydrochloride] | < 0.3 µM |
| CC(C)C(=O)N1CCC[C@H](Oc2cc(CN)cc(C(F)(F)F)n2)C1 [Compound 1-52, (S)-1-(3-((4-(Aminomethyl)-6-(trifluoromethyl)pyridin-2-yl)oxy)piperidin-1-yl)-2-methylpropan-1-one trifluoroacetate] | < 0.3 µM |
